Test results published in patent publication US9695155B2, “Herbicidal substituted pyrimidinyloxy benzene compounds” (E. I. DU PONT DE NEMOURS AND COMPANY, priority 2013, dated 2017).

What was measured:
giant foxtail [1] = test: Test A preemergence; assay type: in vivo, Setaria faberii
Procedure, shortened: (§1)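 Greenhouse pot test, loam/sand soil. Formulation: non-phytotoxic solvent mix plus surfactant. Pre: directed spray onto soil after sowing. Post: plants at 1–2 leaf, 2–10 cm. Rated visually vs untreated controls at ~10 d, 0 (no effect) to 100 (complete control).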

wheat = test: Test A preemergence; assay type: in vivo, Triticum aestivum
Procedure, shortened: as §1

corn = test: Test A preemergence; assay type: in vivo, Zea mays
Procedure, shortened: as §1

large (Lg) crabgrass = test: Test A postemergence; assay type: in vivo, Digitaria sanguinalis
Procedure, shortened: as §1

giant foxtail [2] = test: Test A postemergence; assay type: in vivo, Setaria faberii
Procedure, shortened: as §1

pigweed = test: Test A postemergence; assay type: in vivo, Amaranthus retroflexus
Procedure, shortened: as §1

rice = test: Test B flooded paddy test; assay type: in vivo, Oryza sativa; conditions: Flood, 250 g ai/ha; 0 to 100 scale where 0 is no effect and 100 is complete control
Procedure, shortened: (§2)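 Visual ratings on a 0 to 100 scale, where 100 means complete control, compared treated plants with controls after 13 to 15 days in a greenhouse. Treatment went into paddy water 3 cm deep over the soil, applied to plants at the 2-leaf stage.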

sedge, umbrella = test: Test B flooded paddy test; assay type: in vivo, Cyperus difformis; conditions: Flood, 250 g ai/ha; 0 to 100 scale where 0 is no effect and 100 is complete control
Procedure, shortened: as §2

barnyardgrass = test: Test B flooded paddy test; assay type: in vivo, Echinochloa crus-galli; conditions: Flood, 250 g ai/ha; 0 to 100 scale where 0 is no effect and 100 is complete control
Procedure, shortened: as §2

Italian ryegrass = test: Test C postemergence; assay type: in vivo, Lolium multiflorum; conditions: for Plant response rating (0 to 100), Ryegrass, Italian: 16 g ai/ha, 0 is no effect, 100 is complete control; for Ryegrass, Italian plant response rating: 31 g ai/ha; for Ryegrass, Italian plant response rating / Plant response rating, Ryegrass, Italian: scale 0 to 100 (0 no effect, 100 complete control)
Procedure, shortened: (§3)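 Greenhouse herbicide screen. Pre: seeded loam/sand, sprayed at planting. Post: 1–4 leaf plants (2–18 cm) in peat-based mix. Formulation: solvent mixture + surfactant, non-phytotoxic. Readout: visual % control vs untreated, 13–15 d; dash = not tested.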

galium = test: Test C postemergence; assay type: in vivo, Galium aparine; conditions: for Plant response rating (0 to 100), Galium: 16 g ai/ha, 0 is no effect, 100 is complete control; for Galium plant response rating: 31 g ai/ha; for Galium plant response rating / Plant response rating, Galium: scale 0 to 100 (0 no effect, 100 complete control)
Procedure, shortened: as §3

lambsquarters = test: Test C postemergence; assay type: in vivo, Chenopodium album; conditions: for Plant response rating (0 to 100), Lambsquarters: 16 g ai/ha, 0 is no effect, 100 is complete control; for Lambsquarters plant response rating: 31 g ai/ha; for Lambsquarters plant response rating / Plant response rating, Lambsquarters: scale 0 to 100 (0 no effect, 100 complete control)
Procedure, shortened: as §3

soybean = test: Test C postemergence; assay type: in vivo, Glycine max; conditions: for Plant response rating (0 to 100), Soybean: 16 g ai/ha, 0 is no effect, 100 is complete control; for Soybean plant response rating: 31 g ai/ha; for Soybean plant response rating / Plant response rating, Soybean: scale 0 to 100 (0 no effect, 100 complete control)
Procedure, shortened: as §3

oilseed rape = test: Test C postemergence; assay type: in vivo, Brassica napus; conditions: for Plant response rating (0 to 100), Oilseed Rape: 16 g ai/ha, 0 is no effect, 100 is complete control; for Oilseed Rape plant response rating: 31 g ai/ha; for Oilseed Rape plant response rating / Plant response rating, Oilseed Rape: scale 0 to 100 (0 no effect, 100 complete control)
Procedure, shortened: as §3

waterhemp = test: Test C postemergence; assay type: in vivo, Amaranthus rudis; conditions: for Plant response rating (0 to 100), Waterhemp: 16 g ai/ha, 0 is no effect, 100 is complete control; for Waterhemp plant response rating: 31 g ai/ha; for Waterhemp plant response rating / Plant response rating, Waterhemp: scale 0 to 100 (0 no effect, 100 complete control)
Procedure, shortened: as §3

chickweed = test: Test C postemergence; assay type: in vivo, Stellaria media; conditions: for Plant response rating (0 to 100), Chickweed: 16 g ai/ha, 0 is no effect, 100 is complete control; for Chickweed plant response rating: 31 g ai/ha; for Chickweed plant response rating / Plant response rating, Chickweed: scale 0 to 100 (0 no effect, 100 complete control)
Procedure, shortened: as §3

[3] = 1000 g ai/ha, 0 to 100 scale, 0 no effect, 100 complete control, approx. 10 days
[4] = 1000 g ai/ha, 0 to 100 scale, 0 no effect, 100 complete control
[5] = postemergence, visual rating, 13 to 15 days
[6] = 125 g ai/ha, postemergence, visual rating
[7] = Postemergence, 62 g ai/ha, 13 to 15 days
[8] = 500 g ai/ha, 0 to 100 scale where 0 is no effect and 100 is complete control
[9] = 125 g ai/ha, 0 to 100 scale where 0 is no effect and 100 is complete control

Structure (SMILES): Clc1cnc(Oc2ccccc2-n2cc(Br)nn2)nc1 [Compound 223]
- Foxtail, Giant plant response rating (giant foxtail [1]; [3]): 100
- Wheat plant response rating (wheat; [3]): 80
- Corn plant response rating (corn; [3]): 80
- Plant response rating, Crabgrass, Large (large (Lg) crabgrass; [4]): 100
- Plant response rating, Foxtail, Giant (giant foxtail [2]; [4]): 90
- Plant response rating, Pigweed (pigweed; [4]): 100
- Plant response rating, Rice (rice): 50
- Plant response rating, Sedge, Umbrella (sedge, umbrella): 85
- Plant response rating, Barnyardgrass (barnyardgrass): 35
- Plant response rating (0 to 100), Ryegrass, Italian (Italian ryegrass; postemergence): 0
- Ryegrass, Italian plant response rating (Italian ryegrass; [5]): 0
- Plant response rating, Ryegrass, Italian (Italian ryegrass; [6]): 5
- Plant response rating, Ryegrass, Italian (Italian ryegrass; [7]): 0
- Plant response rating (0 to 100), Galium (galium; postemergence): 75
- Galium plant response rating (galium; [5]): 80
- Plant response rating, Galium (galium; [6]): 100
- Plant response rating, Galium (galium; [7]): 80
- Plant response rating (0 to 100), Lambsquarters (lambsquarters; postemergence): 60
- Lambsquarters plant response rating (lambsquarters; [5]): 75
- Plant response rating, Lambsquarters (lambsquarters; [6]): 95
- Plant response rating, Lambsquarters (lambsquarters; [7]): 75
- Plant response rating (0 to 100), Soybean (soybean; postemergence): 60
- Soybean plant response rating (soybean; [5]): 65
- Plant response rating, Soybean (soybean; [6]): 95
- Plant response rating, Soybean (soybean; [7]): 85
- Plant response rating (0 to 100), Oilseed Rape (oilseed rape; postemergence): 10
- Oilseed Rape plant response rating (oilseed rape; [5]): 50
- Plant response rating, Oilseed Rape (oilseed rape; [6]): 85
- Plant response rating, Oilseed Rape (oilseed rape; [7]): 80
- Plant response rating (0 to 100), Waterhemp (waterhemp; postemergence): 70
- Waterhemp plant response rating (waterhemp; [5]): 60
- Plant response rating, Waterhemp (waterhemp; [6]): 95
- Plant response rating, Waterhemp (waterhemp; [7]): 85
- Plant response rating (0 to 100), Chickweed (chickweed; postemergence): 35
- Chickweed plant response rating (chickweed; [5]): 50
- Plant response rating, Chickweed (chickweed; [6]): 60
- Plant response rating, Chickweed (chickweed; [7]): 50

Structure (SMILES): Fc1cnc(Oc2ccccc2-n2cc(C(F)F)cn2)nc1 [Compound 228]
- Foxtail, Giant plant response rating (0 to 100 scale) (giant foxtail [1]; 125 g ai/ha): 90
- Foxtail, Giant plant response rating (giant foxtail [1]; [8]): 100
- Wheat plant response rating (0 to 100 scale) (wheat; 125 g ai/ha): 0
- Wheat plant response rating (wheat; [8]): 0
- Corn plant response rating (0 to 100 scale) (corn; 125 g ai/ha): 0
- Corn plant response rating (corn; [8]): 40
- Crabgrass, Large plant response rating (large (Lg) crabgrass; [9]): 40
- Plant response rating, Crabgrass, Large (large (Lg) crabgrass; [8]): 90
- Foxtail, Giant plant response rating (giant foxtail [2]; [9]): 50
- Plant response rating, Foxtail, Giant (giant foxtail [2]; [8]): 90
- Pigweed plant response rating (pigweed; [9]): 100
- Plant response rating, Pigweed (pigweed; [8]): 100
- Plant response rating, Rice (rice): 0
- Plant response rating, Sedge, Umbrella (sedge, umbrella): 60
- Plant response rating, Barnyardgrass (barnyardgrass): 0
- Plant response rating (0 to 100), Ryegrass, Italian (Italian ryegrass; postemergence): 0
- Ryegrass, Italian plant response rating (Italian ryegrass; [5]): 0
- Plant response rating, Ryegrass, Italian (Italian ryegrass; [6]): 10
- Plant response rating, Ryegrass, Italian (Italian ryegrass; [7]): 0
- Plant response rating (0 to 100), Galium (galium; postemergence): 50
- Galium plant response rating (galium; [5]): 50
- Plant response rating, Galium (galium; [6]): 80
- Plant response rating, Galium (galium; [7]): 70
- Plant response rating (0 to 100), Lambsquarters (lambsquarters; postemergence): 25
- Lambsquarters plant response rating (lambsquarters; [5]): 40
- Plant response rating, Lambsquarters (lambsquarters; [6]): 65
- Plant response rating, Lambsquarters (lambsquarters; [7]): 75
- Plant response rating (0 to 100), Soybean (soybean; postemergence): 25
- Soybean plant response rating (soybean; [5]): 35
- Plant response rating, Soybean (soybean; [6]): 80
- Plant response rating, Soybean (soybean; [7]): 60
- Plant response rating (0 to 100), Oilseed Rape (oilseed rape; postemergence): 40
- Oilseed Rape plant response rating (oilseed rape; [5]): 60
- Plant response rating, Oilseed Rape (oilseed rape; [6]): 85
- Plant response rating, Oilseed Rape (oilseed rape; [7]): 60
- Plant response rating (0 to 100), Waterhemp (waterhemp; postemergence): 15
- Waterhemp plant response rating (waterhemp; [5]): 45
- Plant response rating, Waterhemp (waterhemp; [6]): 75
- Plant response rating, Waterhemp (waterhemp; [7]): 60
- Plant response rating (0 to 100), Chickweed (chickweed; postemergence): 10
- Chickweed plant response rating (chickweed; [5]): 30
- Plant response rating, Chickweed (chickweed; [6]): 50
- Plant response rating, Chickweed (chickweed; [7]): 50
